Consider 3 compounds from paper PMC9865188 (Pharmaceutics, 2023).

Where two headings read alike, the source gives them in different places.

The subject of data set [1] is MDCKII-MDR1 cells. The experiment in a line: Monolayer integrity: lucifer yellow permeability, MDCKII-MDR1 (series 2). The conditions noted are these: MDCKII-MDR1, series 2, 100 µM lucifer yellow.
Protocol: For (2) and (3), passive permeability was assessed by supplementation of 100 µM lucifer yellow to all donor solutions.
Papp was calculated by dividing the flux with the measured donor concentration.
The subject of data set [2] is Caco-2 cells.
Data set [3] has as its system Caco-2 cells. The source holds these as a separate data set.
The conditions of data set [4]: cited from earlier work.

As for lucifer yellow, the values for the Lucifer yellow permeability in data set [1] and in data set [2] were 0.39–1.2 × 10^−6 cm/s and 0.15–1.1 × 10^−6 cm/s, respectively.

As for `OC[C@@H](O)[C@@H](O)[C@H](O)[C@H](O)CO` [^3H-mannitol], the 3H-mannitol permeability in data set [3] is given as 0.31–1.4 × 10^−6 cm/s.

Take polysorbate 20: the “critical micelle concentration (CMC)” value in data set [4] (in water, temperatures of 22–40 °C) was 11 to 57 µM; in data set [4] (room temperature) it was 11 to 42 µM.
